Measurements from patent US11352372B2, “Benzimidamides compounds comprising an oxaborinin ring” (INSTITUT NATIONAL DE LA SANTÉ ET DE LA RECHERCHE MÉDICALE …, priority 2018, dated 2022).
Where a name gives a salt, the structure may show the parent alone.

The compounds below were run against T1, human kallikrein 5 recombinant enzyme (KLK5) (Homo sapiens, UniProt Q9Y337) (assay: Kinetic FLINT KLK5 assay). Details: 7.5 nM KLK5, 9 uM (Tos-Gly-Pro-Arg)2[R110] substrate, pH 8; each compound tested more than once.
T1 construct: The cleaved protein was then further purified on a 1 mL Heparin HP HITRAP column; 6His (cleaved yes); FLAG (cleaved yes); made in house; host or cells: Spodoptera frugiperda Super 9 insect cells (baculovirus, BAC-TO-BAC)
T1 sequence (Q9Y337 67-293 limits assumed): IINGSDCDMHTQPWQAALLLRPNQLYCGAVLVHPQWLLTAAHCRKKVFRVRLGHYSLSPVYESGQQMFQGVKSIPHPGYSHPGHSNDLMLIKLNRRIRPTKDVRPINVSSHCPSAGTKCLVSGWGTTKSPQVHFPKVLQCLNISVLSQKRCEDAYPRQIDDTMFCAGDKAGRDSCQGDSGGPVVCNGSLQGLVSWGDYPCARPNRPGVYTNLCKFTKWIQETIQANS
Assay type: biochemical
Protocol: Recombinant KLK5 protein was generated from a recombinant baculovirus using the BAC-TO-BAC system (INVITROGEN) (pFastBac_hKLK5_6His-Q-FLAG) expressed in 5 L of Spodoptera frugiperda Super 9 insect cells with a viral infection rate of 1.0. The protein was secreted into HYCLONE SFX growth media (GE HEALTHCARE) from which it was extracted on a 5 mL HISTRAP EXCEL column (GE HEALTHCARE). The column was washed with 500 mM NaCl, 20 mM Tris pH 7.4 buffer and the protein eluted using 500 mM imidazole in 250 mM NaCl, 20 mM Tris pH 7.4 buffer. The eluent was captured on a 5 mL ANTI-FLAG M2 Affinity Gel column (SIGMA). KLK5 was eluted by competing off the bound protein with 0.2 mg/mL FLAG peptide (SIGMA) in 50 mM NaCl, 20 mM Tris-HCl pH 7.4 buffer. 1 M CaCl2 was added to the pooled fractions to a final concentration 2 mM and these were treated with 0.1 U of enterokinase (NOVAGEN) per μg of target protein. The proteins were incubated at room temperature for ˜48 h. The cleaved protein was then further purified on a 1 mL Heparin HP HITRAP column (GE HEALTHCARE) in 20 mM MOPS, pH 6.8 buffer, washed with 100 mM NaCl in 20 mM MOPS, pH 6.8 buffer and eluted with 700 mM NaCl in this buffer. Fractions containing KLK5 were pooled and concentrated using an AMICON concentrator with a molecular weight cut off of 10000 Da. For cryoprotection, glycerol was added to a final concentration of 50%. All purifications were carried out using a semi-automated ÄKTA systems from GE HEALTHCARE.
11 point, 3-fold serial dilutions of each supporting compound were prepared in DMSO and 50 nL of these solutions were dispensed into black LV 384-well plates (GREINER BIO-ONE, Stonehouse, UK) using an ECHO 555 acoustic dispenser (LABCYTE, Sunnyvale, Calif.). This gave a final assay concentration range between 10 μM and […] in 5 μL final assay volume. 50 nL DMSO was dispensed into columns 6 and 18 for high and low controls, respectively. The assay plates were sealed and stored at 4° C. until required.
Conditions for the assay of human kallikrein 5 recombinant enzyme (KLK5), were 100 mM sodium phosphate, pH 8, 1 mM CHAPS, 7.5 nM KLK5 enzyme (see above for preparation), 9 uM peptide substrate ((Tos-Gly-Pro-Arg)2[R110].2TFA) in a total reaction volume of 5 μL.
Assays were performed by initially dispensing 2.5 μL of an enzyme solution (15 nM KLK5 in sodium phosphate, pH 8, 1 mM CHAPS) into all wells of the assay plate (except for column 18) then, 2.5 μL of buffer to column 18 (to generate low controls). Reactions were initiated by addition of 2.5 μL of substrate solution [18 uM (Tos-Gly-Pro-Arg)2[R110].2TFA (Cambridge Research Biochemicals) in sodium phosphate, pH 8, 1 mM CHAPS] to all wells. Plates were immediately centrifuged to reach 1000 rpm before transfer to the reader. All additions were made using a MULTIDROP COMBI dispenser (THERMO FISHER SCIENTIFIC). The assay plates were transferred to a PERKIN ELMER VIEWLUX. The plates were excited at 485 nm and the rates of Rhodamine110 fluorecent emission measured at 535 nm, following cleavage of the substrate by KLK5. Ten measurements were taken over 5 minutes with a read interval of 30 seconds.
From the raw data, the enzyme reaction rates were calculated as relative fluorescence units (RFU). Using the 10 reads collected, per well, a straight line was fitted through data. Initial rates were calculated from the slope of the reaction progress curves. The rate data was normalised to % inhibition between high controls in column 6 (0% inhibition) and low controls in column 18 (100% inhibition). Dose response curves were fitted using the IDBS Primary module fit. The data were fitted by means of a four-parameter fit logistic:
Where x is the inhibitor concentration, y is inhibition (%), A is the minimum response, D is the maximum response, C is the IC50 for the curve and B is the Hill slope. The −log(IC50) gives the pIC50.

Row | average pIC50 | SMILES
1 | 8.5 | Cl.N=C(N)c1ccc(C2Cc3ccc(C(F)(F)F)cc3B(O)O2)cc1OCc1cccnc1 (centres unmarked) [Compound 1, 4-(1-Hydroxy-7-(trifluoromethyl)-3,4-dihydro-1H-benzo[c][1,2]oxaborinin-3-yl)-2-(pyridin-3-ylmethoxy)benzimidamide hydrochloride salt]
2 | 8.1 | Cl.N=C(N)c1ccc(C2Cc3cc(Cl)c(F)cc3B(O)O2)cc1OCc1cccnc1 (centres unmarked) [Compound 7, 4-(6-chloro-7-fluoro-1-hydroxy-3,4-dihydro-1H-benzo[c][1,2]oxaborinin-3-yl)-2-(pyridin-3-ylmethoxy)benzimidamide]
3 | 8.2 | Cl.N=C(N)c1ccc(C2Cc3ccccc3B(O)O2)cc1OCc1cccnc1 (centres unmarked) [Compound 8, 4-(1-hydroxy-3,4-dihydro-1H-benzo[c][1,2]oxaborinin-3-yl)-2-(pyridin-3-ylmethoxy)benzimidamide]

Same assay, conditions: 7.5 nM KLK5, 9 uM (Tos-Gly-Pro-Arg)2[R110] substrate, pH 8; each compound tested more than once; read-out: average pIC50 (converted)

Row | IC50 [nM] | SMILES
4 | 3.98 | N=C(N)c1ccc([C@H]2Cc3ccc(C(F)(F)F)cc3B(O)O2)cc1OCc1cccnc1 [Compound 2, (R)-4-(1-hydroxy-7-(trifluoromethyl)-3,4-dihydro-1H-benzo[c][1,2]oxaborinin-3-yl)-2-(pyridin-3-ylmethoxy)benzimidamide hydrochloride salt]
5 | 39.8 | N=C(N)c1ccc([C@H]2Cc3ccc(C(F)(F)F)cc3B(O)O2)cc1OCc1cccnc1 [Compound 3, (R)-4-(1-hydroxy-7-(trifluoromethyl)-3,4-dihydro-1H-benzo[c][1,2]oxaborinin-3-yl)-2-(pyridin-3-ylmethoxy)benzimidamide]
6 | 3.98 | N=C(N)c1ccc([C@@H]2Cc3ccc(C(F)(F)F)cc3B(O)O2)cc1OCc1cccnc1 [Compound 4]
7 | 7.94 | N=C(N)c1ccc(C2Cc3ccc(C(F)(F)F)cc3B(O)O2)cc1OCc1cccc(Cl)c1 (centres unmarked) [Compound 5, 2-((3-chlorobenzyl)oxy)-4-(1-hydroxy-7-(trifluoromethyl)-3,4-dihydro-1H-benzo[c][1,2]oxaborinin-3-yl)benzimidamide]
8 | 10 | N=C(N)c1ccc(C2Cc3ccc(C(F)(F)F)cc3B(O)O2)cc1 (centres unmarked) [Compound 6, 4-(1-hydroxy-7-(trifluoromethyl)-3,4-dihydro-1H-benzo[c][1,2]oxaborinin-3-yl)benzimidamide]
